{"source": "paper PMC7096398", "about": "“Oxytocin Receptors Regulate Social Preference in Zebrafish” (Scientific Reports, 2020)", "key": {"Avpr1ab": {"molecular_target": "T1, Avpr1ab (Danio rerio, UniProt A0A8M1P6E3)", "T1 sequence (A0A8M1P6E3 1-410)": "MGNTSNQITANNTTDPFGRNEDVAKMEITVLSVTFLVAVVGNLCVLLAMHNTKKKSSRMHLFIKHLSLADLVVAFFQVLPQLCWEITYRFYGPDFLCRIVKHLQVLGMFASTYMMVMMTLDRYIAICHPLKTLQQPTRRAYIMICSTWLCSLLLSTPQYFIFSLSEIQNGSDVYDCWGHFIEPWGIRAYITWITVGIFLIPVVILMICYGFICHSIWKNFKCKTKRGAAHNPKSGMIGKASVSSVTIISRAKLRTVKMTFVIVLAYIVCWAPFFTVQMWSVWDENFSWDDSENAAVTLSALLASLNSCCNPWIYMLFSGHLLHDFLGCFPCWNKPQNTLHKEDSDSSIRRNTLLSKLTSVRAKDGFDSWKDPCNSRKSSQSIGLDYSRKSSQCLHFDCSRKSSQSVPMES", "test": "Inositol phosphate accumulation assay, antagonism of 1 μM zVP at Avpr1ab", "type": "cell-based, zebrafish", "details": "stimulated with agonist; antagonist up to 1 μM", "method": "The receptor constructs were ordered from GeneScript and subcloned into a pcDNA3.1/CT-GFP-TOPO vector. The coding sequences of the GenBank entries NM_001199370.1 (oxtr), NM_001199369.1 (oxtrl), NM_001301114.1 (avpr1aa), and NM_001297676.1 (avpr1ab) were used for synthesis. The stop codons were removed, and an additional […] was added to facilitate hybrid protein expression with GFP in frame from the vector. The GCCACC Kozak sequence was inserted before the start codons. After transformation of the plasmid constructs into TOP10 competent cells (Thermo Fisher Scientific), the Maxiprep (Thermo Fisher Scientific) method was used to amplify the plasmids for transfection.\nThe Inositol phosphate accumulation assay was performed according to previous descriptions to measure the potency of different ligands for zebrafish different oxytocin related receptors. Each receptor construct was transfected into HEK293 cells using Lipofectamine 2000 (Thermo Fisher Scientific). Myo2-^3H-inositol (PerkinElmer) at 3 μCi/mL was added the day after transfection. […] Samples were mixed with OptiPhase HiSafe (PerkinElmer Waltham, MA, USA) and ^3H radioactivity was measured with a Tri-Carb 2910TR liquid scintillation counter (PerkinElmer Waltham, MA, USA). […]"}, "adult zebrafish": {"test_system": "adult zebrafish", "test": "Novel tank diving in adult zebrafish", "type": "in vivo, zebrafish (Danio rerio)", "method": "Adult and larval behavioural testing was performed between 9 AM and 4 PM. All fish were fed prior to and after experiments, and larvae were also given an additional feed at midday. Adult fish were of a 1:1 sex ratio, and focal fish and stimulus fish were size-matched. Adult fish and shoals were filmed using a web camera and Debut Video Capture Software (NCH Software, Greenwood Village, USA), and videos were analysed using EthoVision version 11 (Noldus, Wageningen, the Netherlands).\nA novel tank diving test was executed individually in order to examine the effect of the antagonist on anxiety in zebrafish. Anxiety-like behaviour in zebrafish is evident in a tendency to move towards the bottom of novel environments. The novel tank diving test used here has been described elsewhere. In brief, the same procedure as for the shoaling test described above was used, except that fish were housed in groups of 4–6 individuals 24 hours prior to the experiment in order to keep netting and potential stress to a minimum, and each fish was placed the test tank individually. A total of 20 vehicle-treated fish and 20 antagonist-treated fish were tested.\nAll data for the social preference and novel tank diving experiments in adults were extracted as processed means per minute from EthoVision. For the shoaling experiments, raw data was exported from EthoVision, and then post-processed by an in-house script written in Python 3.4, in order to compute IFD, NND, and FND as described elsewhere. For timelines, repeated measures analysis of variance (RM-ANOVA) was used. For pairwise comparisons of total means between groups, Student’s T-tests were used."}, "monkeys": {"test_system": "monkeys", "details": "cited from earlier work"}}, "note": "“Also recorded” adds a separate entry of the source."}
{"smiles": "Cc1ccccc1N1CCN(S(=O)(=O)C[C@]23CC[C@H](C[C@@H]2NC(=O)[C@@H](N)CCS(C)(=O)=O)C3(C)C)CC1", "note": "[L-368,899]", "values": [{"measurement": "Antagonism at Avpr1ab, in words", "setting": "Avpr1ab", "result": "did not block the response and not and without reducing the effect of the peptide agonist"}, {"measurement": "Anxiety behaviour: Distance to bottom", "setting": "adult zebrafish; adult novel tank diving, i.p., 1 h before test, mean ± SEM, n = 20, vehicle 2.7 ± 0.4", "result": "3.1 ± 0.4", "unit": "cm"}, {"measurement": "Locomotion: Velocity", "setting": "adult zebrafish; adult novel tank diving, i.p., 1 h before test, mean ± SEM, n = 20, vehicle 3.1 ± 0.2, p = 0.47", "result": "2.9 ± 0.2", "unit": "cm/s"}, {"measurement": "Anxiety behaviour: Duration in top zone", "setting": "adult zebrafish; adult novel tank diving, i.p., 1 h before test, mean ± SEM, n = 20, vehicle 7.0 ± 2.4", "result": "8.8 ± 2.4", "unit": "s/min"}, {"measurement": "Locomotion: Distance", "setting": "adult zebrafish; adult novel tank diving, i.p., 1 h before test, mean ± SEM, n = 20, vehicle 186 ± 11, p = 0.49", "result": "174 ± 14", "unit": "cm/min"}, {"measurement": "Anxiety behaviour: Latency to top zone", "setting": "adult zebrafish; adult novel tank diving, i.p., 1 h before test, mean ± SEM, n = 20, vehicle 327 ± 58", "result": "387 ± 81", "unit": "s"}, {"measurement": "Anxiety, in words", "setting": "adult zebrafish; adults, antagonist vs vehicle", "result": "did not affect anxiety; also recorded: no differences in any of the anxiety parameters"}, {"measurement": "Activity parameters vs vehicle, novel tank diving test", "setting": "adult zebrafish; average distance p = 0.49, average velocity p = 0.47", "result": "no significant differences"}, {"measurement": "Behavioural effects one hour after treatment", "setting": "monkeys", "result": "robust behavioural effects"}]}
